Data as given in ChEMBL document CHEMBL5728314, “Chiral N-acyl-5,6,7(8-substituted)-tetrahydro-[1,2,4]triazolo[4,3-a]pyrazines as selective NK-3 receptor antagonists, pharmaceutical composition, methods for use in NK-3 receptor mediated disorders and chiral synthesis thereof” (2021).

Molecular target: T1, Neuromedin-K receptor (Homo sapiens, UniProt P29371)
T1 sequence (P29371 whole entry): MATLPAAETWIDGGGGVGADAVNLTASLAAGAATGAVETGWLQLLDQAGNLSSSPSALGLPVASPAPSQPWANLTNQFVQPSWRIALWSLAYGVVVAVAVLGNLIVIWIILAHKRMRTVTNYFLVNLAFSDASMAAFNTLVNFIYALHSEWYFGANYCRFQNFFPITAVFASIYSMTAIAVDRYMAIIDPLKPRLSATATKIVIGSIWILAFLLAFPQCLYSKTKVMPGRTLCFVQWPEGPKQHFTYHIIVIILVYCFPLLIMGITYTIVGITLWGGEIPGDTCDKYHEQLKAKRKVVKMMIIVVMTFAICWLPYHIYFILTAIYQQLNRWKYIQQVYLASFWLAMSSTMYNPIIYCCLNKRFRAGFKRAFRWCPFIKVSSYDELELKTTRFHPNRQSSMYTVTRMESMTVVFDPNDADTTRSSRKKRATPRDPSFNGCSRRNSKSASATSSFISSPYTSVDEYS
Test: Binding Competition Assay: NK3: The ability of compounds of the invention to inhibit the binding of the NK-3 receptor selective antagonist 3H-SB222200 was assessed by an in vitro radioligand binding assay. Membranes were prepared from Chinese hamster ovary recombinant cells stably expressing the human NK3 receptor. The membranes were incubated with 5 nM 3H-SB222200 (ARC) in a HEPES 25 mM/NaCl 0.1M/CaCl2 1 mM/MgCl2 5 Mm/BSA 0.5%/Saponin 10 μg/ml buffer at pH 7.4 and various concentrations of compounds of the invention. The amount of 3H-SB222200 bound to the receptor was determined after filtration by the quantification of membrane associated radioactivity using the TopCount-NXT reader (Packard).

Ki: 51 nM
Compound: Cc1coc(-c2nnc3n2CCN[C@@H]3C)n1
